ChEMBL document CHEMBL1201861, “Genomics of Drug Sensitity in Cancer screening data, Wellcome Trust Sanger Institute”
Counter-ions that a name gives are not always drawn.

Legend:
Assay in all cases: cells
[1] = system: D-502MG; format: functional, cell-based, Homo sapiens; conditions: Homo sapiens, D-502MG
Description: SANGER: Inhibition of human D-502MG cell growth in a cell viability assay.

[2] = system: DMS-114; format: functional, cell-based, Homo sapiens; conditions: Homo sapiens, DMS-114
[3] = system: EM-2; format: functional, cell-based, Homo sapiens; conditions: Homo sapiens, EM-2;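 further: growth inhibition of EM-2 cells, read out with a cell viability assay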
Description: SANGER: Inhibition of human EM-2 cell growth in a cell viability assay.

[4] = system: ES3; format: functional, cell-based, Homo sapiens; conditions: Homo sapiens, ES3;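 further: growth inhibition of ES3 cells, read out with a cell viability assay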
Description: SANGER: Inhibition of human ES3 cell growth in a cell viability assay.

[5] = system: EW-3; format: functional, cell-based, Homo sapiens; conditions: Homo sapiens, EW-3;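 further: cell viability assay read-out, IC50 reflects inhibition of growth of the EW-3 cells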
Description: SANGER: Inhibition of human EW-3 cell growth in a cell viability assay.

[6] = system: GR-ST; format: functional, cell-based, Homo sapiens; conditions: Homo sapiens, GR-ST
Description: SANGER: Inhibition of human GR-ST cell growth in a cell viability assay.

[7] = system: GT3TKB; format: functional, cell-based, Homo sapiens; conditions: Homo sapiens, GT3TKB;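 further: growth inhibition of the cell line, read out with a cell viability assay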
Description: SANGER: Inhibition of human GT3TKB cell growth in a cell viability assay.

[8] = system: HAL-01; format: functional, cell-based, Homo sapiens; conditions: Homo sapiens, HAL-01;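 further: growth inhibition of human HAL-01 cells, read out with a cell viability assay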
Description: SANGER: Inhibition of human HAL-01 cell growth in a cell viability assay.

[9] = system: HCE-T; format: functional, cell-based, Homo sapiens; conditions: Homo sapiens, HCE-T;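 further: cell viability assay read-out, reporting inhibition of HCE-T cell growth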
Description: SANGER: Inhibition of human HCE-T cell growth in a cell viability assay.

[10] = system: HT; format: functional, cell-based, Homo sapiens; conditions: Homo sapiens, HT
Description: SANGER: Inhibition of human HT cell growth in a cell viability assay.

[11] = system: HuTu80; format: functional, cell-based, Homo sapiens, HUTU-80; conditions: Homo sapiens, HuTu80;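 further: growth inhibition of HuTu80 human cells, determined with a cell viability readout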
Description: SANGER: Inhibition of human HUTU-80 cell growth in a cell viability assay.

[12] = system: KMOE-2; format: functional, cell-based, Homo sapiens; conditions: Homo sapiens, KMOE-2;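 further: growth inhibition of human KMOE-2 cells, read out with a cell viability assay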
Description: SANGER: Inhibition of human KMOE-2 cell growth in a cell viability assay.

[13] = system: LB1047-RCC; format: functional, cell-based, Homo sapiens; conditions: Homo sapiens, LB1047-RCC;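 further: inhibition of cell growth, determined with a cell viability assay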
Description: SANGER: Inhibition of human LB1047-RCC cell growth in a cell viability assay.

[14] = system: LB2241-RCC; format: functional, cell-based, Homo sapiens; conditions: Homo sapiens, LB2241-RCC;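 further: cell viability assay measuring how strongly the cultured human renal carcinoma line is prevented from growing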
Description: SANGER: Inhibition of human LB2241-RCC cell growth in a cell viability assay.

[15] = system: LB2518-MEL; format: functional, cell-based, Homo sapiens; conditions: Homo sapiens, LB2518-MEL;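 further: growth inhibition of human LB2518-MEL cells, measured with a cell viability assay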
Description: SANGER: Inhibition of human LB2518-MEL cell growth in a cell viability assay.

[16] = system: LB996-RCC; format: functional, cell-based, Homo sapiens; conditions: Homo sapiens, LB996-RCC
Description: SANGER: Inhibition of human LB996-RCC cell growth in a cell viability assay.

[17] = system: LS-1034; format: functional, cell-based, Homo sapiens; conditions: Homo sapiens, LS-1034
Description: SANGER: Inhibition of human LS-1034 cell growth in a cell viability assay.

[18] = system: LU-134-A; format: functional, cell-based, Homo sapiens; conditions: Homo sapiens, LU-134-A
Description: SANGER: Inhibition of human LU-134-A cell growth in a cell viability assay.

[19] = system: LXF-289 cell line; format: functional, cell-based, Homo sapiens; conditions: Homo sapiens, LXF-289
Description: SANGER: Inhibition of human LXF-289 cell growth in a cell viability assay.

[20] = system: MC116; format: functional, cell-based, Homo sapiens; conditions: Homo sapiens, MC116;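 further: growth inhibition of MC116 cells, read out with a cell viability assay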
Description: SANGER: Inhibition of human MC116 cell growth in a cell viability assay.

[21] = system: MEG-01; format: functional, cell-based, Homo sapiens; conditions: Homo sapiens, MEG-01;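 further: growth inhibition of MEG-01 cells, read out by a cell viability assay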
Description: SANGER: Inhibition of human MEG-01 cell growth in a cell viability assay.

[22] = system: MLMA; format: functional, cell-based, Homo sapiens; conditions: Homo sapiens, MLMA;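 further: growth inhibition of MLMA cells (human), determined through a cell viability readout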
Description: SANGER: Inhibition of human MLMA cell growth in a cell viability assay.

[23] = system: MOLT-4; format: functional, cell-based, Homo sapiens; conditions: Homo sapiens, MOLT-4;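 further: growth inhibition of MOLT-4 cells, determined with a cell viability readout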
Description: SANGER: Inhibition of human MOLT-4 cell growth in a cell viability assay.

[24] = system: MV4-11; format: functional, cell-based, Homo sapiens, MV-4-11; conditions: Homo sapiens, MV4-11;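 further: cell viability readout measuring growth inhibition of human MV-4-11 cells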
Description: SANGER: Inhibition of human MV-4-11 cell growth in a cell viability assay.

[25] = system: Mo; format: functional, cell-based, Homo sapiens; conditions: Homo sapiens, Mo
Description: SANGER: Inhibition of human Mo-T cell growth in a cell viability assay.

[26] = system: NCI-H1155; format: functional, cell-based, Homo sapiens; conditions: Homo sapiens, NCI-H1155;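 further: cell growth inhibition measured by a viability assay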
Description: SANGER: Inhibition of human NCI-H1155 cell growth in a cell viability assay.

[27] = system: NCI-H1770; format: functional, cell-based, Homo sapiens; conditions: Homo sapiens, NCI-H1770;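 further: growth inhibition of NCI-H1770 cells determined with a viability readout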
Description: SANGER: Inhibition of human NCI-H1770 cell growth in a cell viability assay.

[28] = system: NCI-H23; format: functional, cell-based, Homo sapiens; conditions: Homo sapiens, NCI-H23;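 further: cell viability assay measuring growth inhibition of NCI-H23 cells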
Description: SANGER: Inhibition of human NCI-H23 cell growth in a cell viability assay.

[29] = system: OCI-AML2; format: functional, cell-based, Homo sapiens; conditions: Homo sapiens, OCI-AML2;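 further: growth inhibition of OCI-AML2 cells, read out with a cell viability assay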
Description: SANGER: Inhibition of human OCI-AML2 cell growth in a cell viability assay.

[30] = system: OS-RC-2; format: functional, cell-based, Homo sapiens; conditions: Homo sapiens, OS-RC-2;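 further: growth inhibition of human OS-RC-2 cells, measured by a cell viability assay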
Description: SANGER: Inhibition of human OS-RC-2 cell growth in a cell viability assay.

[31] = system: RH-1; format: functional, cell-based, Homo sapiens; conditions: Homo sapiens, RH-1;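 further: growth inhibition of human RH-1 cells, read out with a cell viability assay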
Description: SANGER: Inhibition of human RH-1 cell growth in a cell viability assay.

[32] = system: RXF 393; format: functional, cell-based, Homo sapiens; conditions: Homo sapiens, RXF 393;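 further: growth inhibition of human RXF 393 cells, read out with a cell viability assay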
Description: SANGER: Inhibition of human RXF393 cell growth in a cell viability assay.

[33] = system: Ramos-2G6-4C10; format: functional, cell-based, Homo sapiens; conditions: Homo sapiens, Ramos-2G6-4C10;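 further: growth inhibition of the cell line, measured by a cell viability read-out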
Description: SANGER: Inhibition of human Ramos-2G6-4C10 cell growth in a cell viability assay.

[34] = system: SF-539; format: functional, cell-based, Homo sapiens; conditions: Homo sapiens, SF-539;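 further: Read-out is a cell viability assay, with IC50 reflecting inhibition of cell growth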
Description: SANGER: Inhibition of human SF539 cell growth in a cell viability assay.

[35] = system: SH-4; format: functional, cell-based, Homo sapiens; conditions: Homo sapiens, SH-4;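 further: growth inhibition of SH-4 cells, read out with a cell viability assay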
Description: SANGER: Inhibition of human SH-4 cell growth in a cell viability assay.

[36] = system: SK-MEL-1; format: functional, cell-based, Homo sapiens; conditions: Homo sapiens, SK-MEL-1;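 further: growth inhibition of human SK-MEL-1 cells, read out by a cell viability assay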
Description: SANGER: Inhibition of human SK-MEL-1 cell growth in a cell viability assay.

[37] = system: SK-NEP-1; format: functional, cell-based, Homo sapiens; conditions: Homo sapiens, SK-NEP-1;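 further: growth inhibition of human SK-NEP-1 cells, read out by a cell viability assay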
Description: SANGER: Inhibition of human SK-NEP-1 cell growth in a cell viability assay.

[38] = system: SK-PN-DW; format: functional, cell-based, Homo sapiens; conditions: Homo sapiens, SK-PN-DW;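 further: growth inhibition measured with a viability assay on these cells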
Description: SANGER: Inhibition of human SK-PN-DW cell growth in a cell viability assay.

[39] = system: SNU-C2B; format: functional, cell-based, Homo sapiens; conditions: Homo sapiens, SNU-C2B;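 further: cell viability readout used to measure compound-driven suppression of SNU-C2B cell proliferation, IC50 marking half-maximal growth inhibition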
Description: SANGER: Inhibition of human SNU-C2B cell growth in a cell viability assay.

[40] = system: SW 954; format: functional, cell-based, Homo sapiens; conditions: Homo sapiens, SW 954;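 further: growth inhibition of SW954 human cancer cells, read out as cell viability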
Description: SANGER: Inhibition of human SW954 cell growth in a cell viability assay.

[41] = system: TE-1; format: functional, cell-based, Homo sapiens; conditions: Homo sapiens, TE-1;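 further: growth inhibition of the human TE-1 cell line, read out with a cell viability assay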
Description: SANGER: Inhibition of human TE-1 cell growth in a cell viability assay.

[42] = system: 697; format: functional, cell-based, Homo sapiens; conditions: Homo sapiens
Description: SANGER: Inhibition of human 697 cell growth in a cell viability assay.

[43] = system: A4-Fuk; format: functional, cell-based, Homo sapiens; conditions: Homo sapiens, A4-Fuk;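 further: growth inhibition of A4-Fuk cells, read out by a cell viability assay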
Description: SANGER: Inhibition of human A4-Fuk cell growth in a cell viability assay.

[44] = system: A498; format: functional, cell-based, Homo sapiens; conditions: Homo sapiens, A498;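 further: growth inhibition of human A498 cells, read out with a cell viability assay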
Description: SANGER: Inhibition of human A498 cell growth in a cell viability assay.

[45] = system: A704; format: functional, cell-based, Homo sapiens; conditions: Homo sapiens, A704;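 further: growth inhibition of human A704 cells, read out with a cell viability assay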
Description: SANGER: Inhibition of human A704 cell growth in a cell viability assay.

[46] = system: BB65-RCC; format: functional, cell-based, Homo sapiens; conditions: Homo sapiens, BB65-RCC;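 further: growth inhibition of the cell line, measured with a cell viability assay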
Description: SANGER: Inhibition of human BB65-RCC cell growth in a cell viability assay.

[47] = system: BE-13; format: functional, cell-based, Homo sapiens; conditions: Homo sapiens, BE-13;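 further: growth inhibition of human BE-13 cells, measured with a cell viability assay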
Description: SANGER: Inhibition of human BE-13 cell growth in a cell viability assay.

[48] = system: U-266; format: functional, cell-based, Homo sapiens; conditions: Homo sapiens, U-266
Description: SANGER: Inhibition of human U-266 cell growth in a cell viability assay.

[49] = system: CAS-1; format: functional, cell-based, Homo sapiens; conditions: Homo sapiens, CAS-1;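 further: growth inhibition of CAS-1 cells, measured with a cell viability assay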
Description: SANGER: Inhibition of human CAS-1 cell growth in a cell viability assay.

Compound: COc1cc2ncn(-c3cc(OCc4ccccc4C(F)(F)F)c(C(N)=O)s3)c2cc1OC [GW843682X]
- IC50 [1]: > 256 nM
- IC50 [2]: 122 nM
- IC50 [3]: 111 nM
- IC50 [4]: > 256 nM
- IC50 [5]: 66.3 nM
- IC50 [6]: 84 nM
- IC50 [7]: 12.3 nM
- IC50 [8]: 80.8 nM
- IC50 [9]: 217 nM
- IC50 [10]: 128 nM
- IC50 [11]: 22.3 nM
- IC50 [12]: 231 nM
- IC50 [13]: 25.4 nM
- IC50 [14]: > 256 nM
- IC50 [15]: 107 nM
- IC50 [16]: 104 nM
- IC50 [17]: 59.7 nM
- IC50 [18]: 119 nM
- IC50 [19]: 16.2 nM
- IC50 [20]: 36.4 nM
- IC50 [21]: 41.9 nM
- IC50 [22]: 24.9 nM
- IC50 [23]: 26.9 nM
- IC50 [24]: 25.9 nM
- IC50 [25]: > 256 nM
- IC50 [26]: 86.8 nM
- IC50 [27]: > 256 nM
- IC50 [28]: > 256 nM
- IC50 [29]: 49.9 nM
- IC50 [30]: 188 nM
- IC50 [31]: 242 nM
- IC50 [32]: 105 nM
- IC50 [33]: 37.4 nM
- IC50 [34]: > 256 nM
- IC50 [35]: 123 nM
- IC50 [36]: > 256 nM
- IC50 [37]: 16.5 nM
- IC50 [38]: 38.7 nM
- IC50 [39]: 7.53 nM
- IC50 [40]: 18.1 nM
- IC50 [41]: 14.3 nM
- IC50 [42]: 9.86 nM
- IC50 [43]: 20.8 nM
- IC50 [44]: > 256 nM
- IC50 [45]: > 256 nM
- IC50 [46]: 68.9 nM
- IC50 [47]: 11 nM
- IC50 [48]: 69.8 nM
- IC50 [49]: > 256 nM

Compound: COC1=CC(c2cc3ccccc3[nH]2)=N/C1=C\c1[nH]c(C)cc1C [OBATOCLAX MESYLATE]
- IC50 [1]: 6320 nM
- IC50 [2]: 1270 nM
- IC50 [3]: 3640 nM
- IC50 [4]: 278 nM
- IC50 [5]: 3410 nM
- IC50 [6]: < 62.5 nM
- IC50 [7]: 163 nM
- IC50 [8]: < 62.5 nM
- IC50 [9]: 125 nM
- IC50 [10]: 256 nM
- IC50 [11]: 104 nM
- IC50 [12]: 90.4 nM
- IC50 [13]: 358 nM
- IC50 [14]: 761 nM
- IC50 [15]: 234 nM
- IC50 [16]: 471 nM
- IC50 [17]: 658 nM
- IC50 [18]: > 16000 nM
- IC50 [19]: 260 nM
- IC50 [20]: 113 nM
- IC50 [21]: 454 nM
- IC50 [22]: 75.3 nM
- IC50 [23]: 477 nM
- IC50 [24]: 180 nM
- IC50 [25]: 1900 nM
- IC50 [26]: 6960 nM
- IC50 [27]: 47 nM
- IC50 [28]: 10600 nM
- IC50 [29]: 57.8 nM
- IC50 [30]: 431 nM
- IC50 [31]: 222 nM
- IC50 [32]: 1770 nM
- IC50 [33]: 129 nM
- IC50 [34]: 116 nM
- IC50 [35]: < 62.5 nM
- IC50 [36]: > 16000 nM
- IC50 [37]: 1820 nM
- IC50 [38]: 57.3 nM
- IC50 [39]: 868 nM
- IC50 [40]: 403 nM
- IC50 [41]: 144 nM
- IC50 [42]: 53.2 nM
- IC50 [43]: 89.5 nM
- IC50 [44]: > 16000 nM
- IC50 [45]: 91.5 nM
- IC50 [46]: 175 nM
- IC50 [47]: 129 nM
- IC50 [48]: 311 nM
- IC50 [49]: 1090 nM

Compound: CC(=O)O[C@H]1C(=O)[C@@]2(C)[C@H]([C@H](OC(=O)c3ccccc3)[C@]3(O)C[C@H](OC(=O)[C@H](O)[C@@H](NC(=O)c4ccccc4)c4ccccc4)C(C)=C1C3(C)C)[C@]1(OC(C)=O)CO[C@@H]1C[C@@H]2O [PACLITAXEL]
- IC50 [1]: > 102 nM
- IC50 [2]: 25 nM
- IC50 [3]: > 102 nM
- IC50 [4]: > 102 nM
- IC50 [5]: > 102 nM
- IC50 [6]: 56.2 nM
- IC50 [7]: 4.34 nM
- IC50 [8]: > 102 nM
- IC50 [9]: 20.9 nM
- IC50 [10]: 80.9 nM
- IC50 [11]: 1.68 nM
- IC50 [12]: > 102 nM
- IC50 [13]: 25.1 nM
- IC50 [14]: > 102 nM
- IC50 [15]: 81.4 nM
- IC50 [16]: 77.1 nM
- IC50 [17]: 80.4 nM
- IC50 [18]: 47.7 nM
- IC50 [19]: 8.18 nM
- IC50 [20]: 2.89 nM
- IC50 [21]: 29.8 nM
- IC50 [22]: 74.6 nM
- IC50 [23]: 1.49 nM
- IC50 [24]: 4.75 nM
- IC50 [25]: > 102 nM
- IC50 [26]: > 102 nM
- IC50 [27]: > 102 nM
- IC50 [28]: > 102 nM
- IC50 [29]: 8.52 nM
- IC50 [30]: 77.5 nM
- IC50 [31]: 38.2 nM
- IC50 [32]: 12.6 nM
- IC50 [33]: > 102 nM
- IC50 [34]: 24 nM
- IC50 [35]: 18.9 nM
- IC50 [36]: > 102 nM
- IC50 [37]: 86.4 nM
- IC50 [38]: 11.1 nM
- IC50 [39]: 15 nM
- IC50 [40]: 1.19 nM
- IC50 [41]: 6.06 nM
- IC50 [42]: 1.5 nM
- IC50 [43]: 6.11 nM
- IC50 [44]: > 102 nM
- IC50 [45]: > 102 nM
- IC50 [46]: 25.3 nM
- IC50 [47]: 6.36 nM
- IC50 [48]: > 102 nM
- IC50 [49]: > 102 nM

Compound: N[C@@H](CSC(c1ccccc1)(c1ccccc1)c1ccccc1)C(=O)O [S-TRITYL-L-CYSTEINE]
- IC50 [1]: > 5120 nM
- IC50 [2]: 3260 nM
- IC50 [3]: > 5120 nM
- IC50 [4]: > 5120 nM
- IC50 [5]: 4920 nM
- IC50 [6]: 2970 nM
- IC50 [7]: 285 nM
- IC50 [8]: 2420 nM
- IC50 [9]: 2790 nM
- IC50 [10]: 2690 nM
- IC50 [11]: 546 nM
- IC50 [12]: > 5120 nM
- IC50 [13]: 2600 nM
- IC50 [14]: > 5120 nM
- IC50 [15]: 3710 nM
- IC50 [16]: 2900 nM
- IC50 [17]: 2780 nM
- IC50 [18]: 4340 nM
- IC50 [19]: 977 nM
- IC50 [20]: 709 nM
- IC50 [21]: 1800 nM
- IC50 [22]: 4620 nM
- IC50 [23]: 4290 nM
- IC50 [24]: 381 nM
- IC50 [25]: > 5120 nM
- IC50 [26]: 3800 nM
- IC50 [27]: > 5120 nM
- IC50 [28]: > 5120 nM
- IC50 [29]: 4220 nM
- IC50 [30]: > 5120 nM
- IC50 [31]: > 5120 nM
- IC50 [32]: > 5120 nM
- IC50 [33]: 1550 nM
- IC50 [34]: 2060 nM
- IC50 [35]: 2310 nM
- IC50 [36]: > 5120 nM
- IC50 [37]: 1860 nM
- IC50 [38]: 1350 nM
- IC50 [39]: 1280 nM
- IC50 [40]: 1880 nM
- IC50 [41]: 3600 nM
- IC50 [42]: 328 nM
- IC50 [43]: 453 nM
- IC50 [44]: > 5120 nM
- IC50 [45]: > 5120 nM
- IC50 [46]: 2380 nM
- IC50 [47]: 1080 nM
- IC50 [48]: 4800 nM
- IC50 [49]: > 5120 nM
